Results taken from patent US20260097115A1 (priority 2023, published 2026).

Assays:
Type in all cases: cell-based, human
[1] = system: HLA-II complexes (HLA-DR, HLA-DP, HLA-DQ) of A549/ATC cells
[2] = system: HLA-II complexes of A549/ATC and HEK293T/ATC cells
[3] = system: HLA-II complexes (HLA-DR, HLA-DP, HLA-DQ) of HEK293T/ATC cells

AALQIPFAMQMAYRENGIG [S:892-910]
Unique A549 peptides in segment [1]: 0
Unique peptides in segment [2]: 11
Unique HEK293T peptides in segment [3]: 11

ALHFLLFFRALPKS [ORF3a.iORF1: 28-41]
Unique A549 peptides in segment [1]: 0
Unique peptides in segment [2]: 1
Detection as HLA-II peptide by LC-MS/MS [3]: observed in the same fraction (fxn 3) in two biological replicates
Unique HEK293T peptides in segment [3]: 1

ATREASVYAWNRKRISN [S:344-360]
Unique A549 peptides in segment [1]: 0
Unique peptides in segment [2]: 3
Unique HEK293T peptides in segment [3]: 3

CSNLLLQYGSFCTQLNRALTGIAVEQDKNTQE [S:749-780]
Unique A549 peptides in segment [1]: 0
Unique peptides in segment [2]: 10
Unique HEK293T peptides in segment [3]: 10

DGSEDNQTTTIQTIVE [nsp3: 174-189]
Unique A549 peptides in segment [1]: 0
Unique peptides in segment [2]: 1
Unique HEK293T peptides in segment [3]: 1

DSFVIRGDEVRQIAPG [S:398-413]
Unique A549 peptides in segment [1]: 0
Unique peptides in segment [2]: 1
Unique HEK293T peptides in segment [3]: 1

EPQIITTDNTFVSGN [S:1111-1125]
Unique A549 peptides in segment [1]: 1
Unique peptides in segment [2]: 1
Unique HEK293T peptides in segment [3]: 0

IAQFAPSASAFFG [N: 304-316]
Unique A549 peptides in segment [1]: 1
Unique peptides in segment [2]: 1
Unique HEK293T peptides in segment [3]: 0

ICASYQTQTNSPRRA [S:670-684]
Unique A549 peptides in segment [1]: 0
Unique peptides in segment [2]: 1
Unique HEK293T peptides in segment [3]: 1

INITRFQTLLALHRSYL [S: 233-249]
Unique A549 peptides in segment [1]: 0
Unique peptides in segment [2]: 1
Unique HEK293T peptides in segment [3]: 1

KKKADETQALPQRQKKQQTVTLLPAADLDDESKQLQQSMSSADSTQA [N: 373-419]
Unique A549 peptides in segment [1]: 5
Unique peptides in segment [2]: 69
Unique HEK293T peptides in segment [3]: 69

MAGNGGDAALALLLLDRLNQLESKMSGKGQQQQGQTVT [N: 210-247]
Unique A549 peptides in segment [1]: 21
Unique peptides in segment [2]: 21
Unique HEK293T peptides in segment [3]: 0

MDGSIIQFPNTYLEGSVR [nsp4: 194-211]
Unique A549 peptides in segment [1]: 0
Unique peptides in segment [2]: 5
Unique HEK293T peptides in segment [3]: 5

MDLFMRIFTIGTVTLKQGEIKDATPSDF [ORF3a: 1-28]
Unique A549 peptides in segment [1]: 1
Unique peptides in segment [2]: 4
Unique HEK293T peptides in segment [3]: 4

MDPKISEMHPALRLVDPQIQLAVTRMENA [ORF9b: 1-29]
Unique A549 peptides in segment [1]: 0
Unique peptides in segment [2]: 8
Unique HEK293T peptides in segment [3]: 8

NVPLHGTILTRPLLESELVIGAVILRGHLRIAGHHLGRCDIKDLPKEITVA [M: 121-171]
Unique A549 peptides in segment [1]: 16
Unique peptides in segment [2]: 34
Unique HEK293T peptides in segment [3]: 18

RIGMEVTPSGTWLTYTGAIKLDDKDPNEKDQVILLNKHIDAYKTEPP [N: 319-365]
Unique A549 peptides in segment [1]: 36
Unique peptides in segment [2]: 44
Unique HEK293T peptides in segment [3]: 17

SDNGPQNQRNAPRITE [N: 2-17]
Unique A549 peptides in segment [1]: 1
Unique peptides in segment [2]: 1
Unique HEK293T peptides in segment [3]: 0

SPDAVTAYNGYLTSSSK [nsp3: 661-677]
Unique A549 peptides in segment [1]: 0
Unique peptides in segment [2]: 1
Unique HEK293T peptides in segment [3]: 1

SVASQSIIAYTMSLGAEN [S:686-703]
Unique A549 peptides in segment [1]: 0
Unique peptides in segment [2]: 3
Unique HEK293T peptides in segment [3]: 3

TDHSSSSDNIALLVQ [M: 208-222]
Unique A549 peptides in segment [1]: 2
Unique peptides in segment [2]: 2
Unique HEK293T peptides in segment [3]: 2

TEIYQAGSTPCNGVEG [S:470-485]
Unique A549 peptides in segment [1]: 0
Unique peptides in segment [2]: 2
Unique HEK293T peptides in segment [3]: 2

TGPEAGLPYGANKDG [N: 115-129]
Unique A549 peptides in segment [1]: 1
Unique peptides in segment [2]: 1
Unique HEK293T peptides in segment [3]: 0

TPTWRVYSTGSNVFQTRAG [S:630-648]
Unique A549 peptides in segment [1]: 1
Unique peptides in segment [2]: 3
Unique HEK293T peptides in segment [3]: 2

TQLPPAYTNSFTRGVYYPDKVERSSVLHSTQDLFLPFFS [S: 22-60]
Unique A549 peptides in segment [1]: 13
Unique peptides in segment [2]: 13
Unique HEK293T peptides in segment [3]: 0

TQQLIRAAEIRASANLA [S:1009-1025]
Unique A549 peptides in segment [1]: 0
Unique peptides in segment [2]: 14
Unique HEK293T peptides in segment [3]: 14

TVEKGIYQTSNERVQPTES [S:307-325]
Unique A549 peptides in segment [1]: 3
Unique peptides in segment [2]: 4
Unique HEK293T peptides in segment [3]: 3

VGPKVYPIILRLGSPLS [ORF9b: 37-53]
Unique A549 peptides in segment [1]: 0
Unique peptides in segment [2]: 2
Unique HEK293T peptides in segment [3]: 2

YIINLIIKNLSKS [ORF6: 31-43]
Unique A549 peptides in segment [1]: 1
Unique peptides in segment [2]: 1
Unique HEK293T peptides in segment [3]: 0
